Tests used:
[1] = system: Ae. aegypti; assay: Complete Protection Time test on treated cloth (duration of protection); assay type: in vivo, Aedes aegypti; details: Dosage 0.75 mg/cm^2 on cloth; for Duration of protection against Ae. aegypti, M-3 Days Protection: subject M-3
Procedure: Bioassay for mosquito repellent activity: Repellency screening test for experimental chemicals were carried out to identify candidates that might be useful repellents. The repellent efficacy was compared to that of the standard repellent, DEET. Experimental compounds were assessed in one of two ways: (1) a range of concentration was evaluated to determine the minimum effective dosage (MED) which was the concentration threshold of where the repellent began to fail and allowed bites, or (2) a predetermined concentration of each repellent was applied to cloth and the activity was evaluated over several days (or in some cases months) (Katritzky, A. R., et al., Proc. Nat. Acad. Sci. (US), 105, 7359-7364 (2008); Katritzky, A. R., et al., Journal of Med. Entomol., 47: 924-938 (2010)). When conducting assays for repellency, a failure point was also predetermined for those measurements. Since experiments described herein used about 500 female mosquitoes per test, the failure point was set at 1% (equal to 5 bites) received during a test interval. From 3 to 5 volunteers participated in the screening of each set of chemicals. Complete Protection Time Test: Complete protection time (CPT) on treated cloth is a method of screening that is used to determine the repellent duration for experimental chemicals that have not been examined for safe use on humans. The standard repellent DEET was used as a positive control as a benchmark by which to compare the repellents. Experimental compounds were prepared in solution by combining 0.075 g of experimental chemical with 1 mL of acetone in a 7.1-mL screwtop glass vial. The same concentration level of DEET was also prepared in this way to serve as a control and a comparison for relative repellency. A 50 cm^2 (5 cm×10 cm) patch of muslin cloth was rolled lengthwise and placed into each of the glass vials and sealed with a screwtop so it soaked up the solution. Just prior to the experiment, the pieces of treated cloth were removed from the vials, affixed to card stock tabs (5 cm×3 cm) with staples, and hung with masking tape on a rack to dry and allowed the volatile acetone to evaporate. Similar to the MED tests, volunteers wore a latex glove over their hands, a nylon stocking over their arm, and then wrapped a plastic Velcro-sealed sleeve over their entire forearm with a 32 cm^2 (4 cm×8 cm) window cut-out to allow mosquitoes to bite through. Dried cloth patches were stretched across the window in the plastic sleeve and held in place with masking tape. Volunteers placed their sleeve-covered arms into a screened cage for a one minute period with approximately 500 female Ae. aegypti mosquitoes that had been preselected for host-seeking behavior using a draw box. A cloth patch that received a 1% bite through level, equal to 5 mosquitoes that bit out of 500 mosquitoes, was considered a failure at that concentration. If 0-4 bites were received, then the treated cloth was still considered to be repellent at that concentration. The duration was recorded as the number of days an experimental chemical received a passing result, with day 0 being the day the sample was first dried. […] As with the tests conducted to determine CPT, volunteers in the study provided informed consent (IRB protocol #636-2005). The protocol was approved by the University of Florida Human Use Institutional Review Board.

[2] = system: An. albimanus; assay: Minimum Effective Dosage (MED) test on treated cloth, mosquito repellency; assay type: in vivo, Anopheles albimanus; details: Table 4; for An. albimanus Minimum Effective Dosage, Average: mean of 5 volunteers; for An. albimanus Minimum Effective Dosage, M4: subject M4; for An. albimanus Minimum Effective Dosage, M4 / An. albimanus Minimum Effective Dosage, M5 / An. albimanus Minimum Effective Dosage, M8 / An. albimanus Minimum Effective Dosage, M9 / An. albimanus Minimum Effective Dosage, M10: highest concentration 1.500 mg/cm^2; for An. albimanus Minimum Effective Dosage, M5: subject M5; for An. albimanus Minimum Effective Dosage, M8: subject M8; for An. albimanus Minimum Effective Dosage, M9: subject M9; for An. albimanus Minimum Effective Dosage, M10: subject M10
[3] = system: Ae. aegypti; assay: MED of varying molar ratios of 2 and DEET (synergistic activity); assay type: in vivo, Aedes aegypti; details: Table 6, molar ratio 2:DEET; for Ae. aegypti Minimum Effective Dosage, Average: mean of 3 volunteers; for Ae. aegypti Minimum Effective Dosage, M4: subject M4; for Ae. aegypti Minimum Effective Dosage, M4 / Ae. aegypti Minimum Effective Dosage, M5 / Ae. aegypti Minimum Effective Dosage, M8: highest dose 4.0 mg/cm2; for Ae. aegypti Minimum Effective Dosage, M5: subject M5; for Ae. aegypti Minimum Effective Dosage, M8: subject M8
Procedure: Minimum Effective Dosage (MED) Test: The MED bioassays on treated cloth were a method of screening to determine the minimum amount of a repellent needed to prevent bites. Experimental compounds were prepared in solution by combining 0.15 g of experimental chemical with 2 mL of acetone in a 7.1 mL screwtop glass vial. […] The standard N,N-diethyl-3-methylbenzamide (DEET) was also tested at the same concentration levels to serve as a control and a comparison for relative repellency. A 50 cm^2 (5 cm×10 cm) patch of muslin cloth was rolled lengthwise and placed into each of the glass vials and scaled with a screwtop so it soaked up the solution. Just prior to the experiment, the pieces of treated cloth were removed from the vials, affixed to card stock tabs (5 cm×3 cm) with staples, and hung with masking tape on a rack to dry and allow acetone to evaporate. Volunteers wore a latex glove over their hands, a nylon stocking over their arm, and then wrapped a plastic Velcro-sealed sleeve over their entire forearm with a 32 cm^2 (4 cm×8 cm) window cut-out to allow mosquitoes to bite through. The nylon stocking acted as a barrier between the dried cloth and the skin, an additional precaution with experimental compounds. Dried cloth patches were stretched across the window in the plastic sleeve and held in place with masking tape. Volunteers placed their sleeve-covered arms into a screened cage for a one minute period with approximately 500 female Ae. aegypti mosquitoes that had been preselected for host-seeking behavior using a draw box (Posey, K. H., and C. E. Schreck, Mosquito News, 41: 566-568 (1981)). […] The MED recorded was the lowest passing concentration level tested for the experimental compound. […] All human volunteers in the study provided informed consent to participate of a protocol approved by the University of Florida Human Use Institutional Review Board (IRB #636-2005).
Compound 2 was also evaluated with DEET for synergistic activity. Test samples were prepared at varying molar ratios of DEET: 2 (1:0-1:[…]) and the MED values were evaluated (Table 6).

Row | SMILES | Duration of protection, Proportion to DEET [1] | Duration of protection against Ae. aegypti, M-3 Days Protection [1] [days] | An. albimanus Minimum Effective Dosage, Average [2] [mg/cm^2] | An. albimanus Minimum Effective Dosage, M4 [2] [mg/cm^2] | An. albimanus Minimum Effective Dosage, M5 [2] [mg/cm^2] | An. albimanus Minimum Effective Dosage, M8 [2] [mg/cm^2] | An. albimanus Minimum Effective Dosage, M9 [2] [mg/cm^2] | An. albimanus Minimum Effective Dosage, M10 [2] [mg/cm^2] | Ae. aegypti Minimum Effective Dosage, Average [3] [mg/cm^2] | Ae. aegypti Minimum Effective Dosage, M4 [3] [mg/cm^2] | Ae. aegypti Minimum Effective Dosage, M5 [3] [mg/cm^2] | Ae. aegypti Minimum Effective Dosage, M8 [3] [mg/cm^2]
1 | CC1(C)C=Cc2c(CO)cccc2O1 [Compound 2] | 3.00 | 6 | 0.234 | 0.047 | 0.375 | 0.187 | 0.375 | 0.187 | 0.0260 | 0.0156 | 0.0313 | 0.0313
2 | CCN(CC)C(=O)c1cccc(C)c1 [DEET, N,N-diethyl-3-methylbenzamide, reference compound] | 1.00 | 2 | 0.025 | 0.011 | 0.047 | 0.023 | 0.023 | 0.023 | 0.0313 | 0.0313 | 0.0313 | 0.0313

From US9763444B2, “Compositions and methods for repelling blood-sucking and biting insects, ticks and mites” (The United States of America, as represented by the …, priority 2013, dated 2017)
